Laboratory results as given in PubChem BioAssay AID743163 (Broad Institute, 2013).
Activity calls are given as the source filed them. How the calls were made is not given here.

System: Mycobacterium tuberculosis starved, CFU count by imaging
Test: Starved Mycobacterium tuberculosis, CFU count by imaging, inhibitor dose, dry powder (AID 743163)
Details: stronger effect = lower value

## COc1ccc(CCNc2cc(-c3ccccc3)nc3ncnn23)cc1
CFU at 64 uM, at 64 µM
  CFU: 2.5e+06 CFU
At 10 µM
  CFU: 2.65e+06 CFU

## COC(=O)C(C)Oc1ccc2cc(-c3ccccc3)c(=O)oc2c1 (stereo not drawn)
CFU at 64 uM, at 64 µM
  CFU: 4.57e+06 CFU
At 10 µM
  CFU: 3.2e+07 CFU (inactive)

## CCC(C)n1nnc2c(=O)oc3ccccc3c21 (stereo not drawn)
CFU at 64 uM, at 64 µM
  CFU: 3.22e+06 CFU
At 10 µM
  CFU: 4.71e+06 CFU

## Cn1c(NC(=O)c2ccccc2)nc2ccccc21
CFU at 64 uM, at 64 µM
  CFU: 0 CFU
At 10 µM
  CFU: 0 CFU

## CCOC(=O)c1cc(COc2c(Cl)cccc2Cl)on1
CFU at 64 uM, at 64 µM
  CFU: 1.11e+06 CFU
At 10 µM
  CFU: 3.08e+07 CFU

## COc1ccc(CNC(=O)Nc2ncc([N+](=O)[O-])s2)cc1
CFU at 64 uM, at 64 µM
  CFU: 204000 CFU
At 10 µM
  CFU: 2.15e+06 CFU

## CCOc1ccc(OC(=O)c2ccc3c(=O)n4c(nc3c2)CCC4)cc1
CFU at 64 uM, at 64 µM
  CFU: 3.25e+07 CFU
At 10 µM
  CFU: 3.2e+07 CFU (inactive)

## c1ccc(-c2n[nH]c(-c3ccccn3)n2)nc1
CFU at 64 uM, at 64 µM
  CFU: 1.91e+06 CFU
At 10 µM
  CFU: 6.09e+06 CFU

## CSc1nsc(SCc2ccc(C(=O)Nc3cccc(C)c3)cc2)n1
CFU at 64 uM, at 64 µM
  CFU: 12600 CFU
At 10 µM
  CFU: 1.1e+06 CFU
